{"source": "patent US8247351B2", "about": "“Insecticidal compositions having improved effect” (Bayer Cropscience AG, priority 2005, dated 2012)", "assay_type_in_all_cases": "in vivo", "key": {"Myzus persicae [1]": {"tested_on": "Myzus persicae", "experiment": "Myzus persicae test, Example D (sprayed to runoff, ammonium salt boosting)", "experimental": "(§1) Solvent: 7 parts by weight dimethylformamide\n(§2) Emulsifier: 2 parts by weight alkylaryl polyglycol ether\n(§3) An appropriate preparation of active ingredient is prepared by mixing 1 part by weight of active ingredient with the stated amounts of solvent and emulsifier and diluting the concentrate with water to the desired concentration. For the application with ammonium salts or phosphonium salts, these salts are added in a concentration of 1000 ppm to the spray liquor.\nPaprika plants (Capsicum annum) heavily infested by the green peach aphid (Myzus persicae) are treated by being. sprayed to runoff with the preparation of active ingredient at the desired concentration. After the desired time the destruction in % is ascertained. 100% means that all of the animals have been killed; 0% means that no animals have been killed."}, "Aphis gossypii [2]": {"tested_on": "Aphis gossypii", "experiment": "Aphis gossypii test, Example E (sprayed to runoff, ammonium salt boosting)", "experimental": "as §1, §2\nas §3, with “concentrate with emulsifier-containing water to” for “concentrate with water to”\n(§4) Cotton plants (Gossypium hirsutum) heavily infested by the cotton aphid (Aphis gossypii) are sprayed to runoff with the preparation of active ingredient at the desired concentration.\n(§5) After the desired time the destruction in % is ascertained. 100% means that all of the aphids have been killed; 0% means than no aphids were killed."}, "Myzus persicae [3]": {"tested_on": "Myzus persicae", "experiment": "Myzus persicae test, Example F (sprayed to runoff, ammonium salt plus penetrant)", "experimental": "as §1, §2\nAn appropriate preparation of active ingredient is prepared by mixing 1 part by weight of active ingredient with the stated amounts of solvent and emulsifier and diluting the concentrate with water to the desired concentration. For the application with ammonium salts or phosphonium salts and penetrant (rapeseed oil methyl ester 500 EW), they are each added in a concentration of 1000 ppm to the spray liquor.\nAfter the desired time the destruction in % is ascertained. 100% means that all of the animals have been killed; 0% means that no animals have been killed."}, "Aphis gossypii [4]": {"tested_on": "Aphis gossypii", "experiment": "Aphis gossypii test, Example G (sprayed to runoff, ammonium salt plus penetrant)", "experimental": "as §1, §2\nAn appropriate preparation of active ingredient is prepared by mixing 1 part by weight of active ingredient with the stated amounts of solvent and emulsifier and diluting the concentrate with emulsifier-containing water to the desired concentration. For the application with ammonium salts or phosphonium salts and penetrants (rapeseed oil methyl esters 500 EW), they are each added in a concentration of 1000 ppm a.i. to the spray liquor.\nas §4, §5"}, "[5]": {"details": "4 ppm active ingredient, +AS (1000 ppm)"}, "[6]": {"details": "4 ppm active ingredient, no additive"}, "[7]": {"details": "20 ppm active ingredient, +AS (1000 ppm)"}, "[8]": {"details": "20 ppm active ingredient, no additive"}, "[9]": {"details": "4 ppm active ingredient, +RME (1000 ppm)"}, "[10]": {"details": "4 ppm active ingredient, +RME +AS (each 1000 ppm)"}, "[11]": {"details": "100 ppm active ingredient, +AS (1000 ppm)"}, "[12]": {"details": "100 ppm active ingredient, +RME (1000 ppm)"}, "[13]": {"details": "100 ppm active ingredient, +RME +AS (each 1000 ppm)"}, "[14]": {"details": "100 ppm active ingredient, no additive"}, "[15]": {"details": "0.8 ppm active ingredient, +AS (1000 ppm)"}, "[16]": {"details": "0.8 ppm active ingredient, +RME (1000 ppm)"}, "[17]": {"details": "0.8 ppm active ingredient, +RME +AS (each 1000 ppm)"}, "[18]": {"details": "0.8 ppm active ingredient, no additive"}}}
{"smiles": "COC1CCC2(CC1)NC(=O)C(c1cc(C)c(Cl)cc1C)=C2O", "note": "(stereo not drawn) [Example I-1-a-10]", "values": [{"measurement": "Degree of destruction/% after 6 days", "setting": "Myzus persicae [1]; [5]", "result": 35, "unit": "%"}, {"measurement": "Degree of destruction/% after 6 days", "setting": "Myzus persicae [1]; [6]", "result": 0, "unit": "%"}, {"measurement": "Degree of destruction/% after 6 days", "setting": "Myzus persicae [1]; [7]", "result": 85, "unit": "%"}, {"measurement": "Degree of destruction/% after 6 days", "setting": "Myzus persicae [1]; [8]", "result": 40, "unit": "%"}, {"measurement": "Degree of destruction/% after 6 days", "setting": "Aphis gossypii [2]; [5]", "result": 65, "unit": "%"}, {"measurement": "Degree of destruction/% after 6 days", "setting": "Aphis gossypii [2]; [6]", "result": 20, "unit": "%"}, {"measurement": "Degree of destruction/% after 6 days", "setting": "Aphis gossypii [2]; [7]", "result": 75, "unit": "%"}, {"measurement": "Degree of destruction/% after 6 days", "setting": "Aphis gossypii [2]; [8]", "result": 40, "unit": "%"}, {"measurement": "Degree of destruction/% after 6 days", "setting": "Myzus persicae [3]; [5]", "result": 35, "unit": "%"}, {"measurement": "Degree of destruction/% after 6 days", "setting": "Myzus persicae [3]; [9]", "result": 75, "unit": "%"}, {"measurement": "Degree of destruction/% after 6 days", "setting": "Myzus persicae [3]; [10]", "result": 85, "unit": "%"}, {"measurement": "Degree of destruction/% after 6 days", "setting": "Myzus persicae [3]; [6]", "result": 0, "unit": "%"}]}
{"smiles": "Cc1cc(C)c(C2C(=O)N3CCOCCN3C2=O)c(C)c1-c1ccc(Cl)cc1", "note": "[Example I-8-a-4]", "values": [{"measurement": "Degree of destruction/% after 6 days", "setting": "Aphis gossypii [4]; 90 ppm active ingredient, +AS (1000 ppm)", "result": 35, "unit": "%"}, {"measurement": "Degree of destruction/% after 6 days", "setting": "Aphis gossypii [4]; 90 ppm active ingredient, +RME (1000 ppm)", "result": 30, "unit": "%"}, {"measurement": "Degree of destruction/% after 6 days", "setting": "Aphis gossypii [4]; 90 ppm active ingredient, +RME +AS (each 1000 ppm)", "result": 75, "unit": "%"}, {"measurement": "Degree of destruction/% after 6 days", "setting": "Aphis gossypii [4]; 90 ppm active ingredient, no additive", "result": 30, "unit": "%"}]}
{"smiles": "Cc1cc(C)c(C2=C(O)C3(CCCCC3)CC2=O)c(C)c1", "note": "[Example I-6-a-1]", "values": [{"measurement": "Degree of destruction/% after 6 days", "setting": "Aphis gossypii [4]; [11]", "result": 40, "unit": "%"}, {"measurement": "Degree of destruction/% after 6 days", "setting": "Aphis gossypii [4]; [12]", "result": 60, "unit": "%"}, {"measurement": "Degree of destruction/% after 6 days", "setting": "Aphis gossypii [4]; [13]", "result": 80, "unit": "%"}, {"measurement": "Degree of destruction/% after 6 days", "setting": "Aphis gossypii [4]; [14]", "result": 40, "unit": "%"}]}
{"smiles": "COC1CCC2(CC1)NC(=O)C(c1c(C)cc(C)c(C)c1C)=C2O", "note": "(stereo not drawn) [Example I-1-a-9]", "values": [{"measurement": "Degree of destruction/% after 6 days", "setting": "Myzus persicae [3]; [15]", "result": 5, "unit": "%"}, {"measurement": "Degree of destruction/% after 6 days", "setting": "Myzus persicae [3]; [16]", "result": 35, "unit": "%"}, {"measurement": "Degree of destruction/% after 6 days", "setting": "Myzus persicae [3]; [17]", "result": 75, "unit": "%"}, {"measurement": "Degree of destruction/% after 6 days", "setting": "Myzus persicae [3]; [18]", "result": 0, "unit": "%"}]}
{"smiles": "CO[C@H]1CC[C@]2(CC1)NC(=O)C(c1cc(C)ccc1C)=C2O", "note": "[Example I-1-a-13]", "values": [{"measurement": "Degree of destruction/% after 6 days", "setting": "Myzus persicae [3]; [15]", "result": 0, "unit": "%"}, {"measurement": "Degree of destruction/% after 6 days", "setting": "Myzus persicae [3]; [16]", "result": 0, "unit": "%"}, {"measurement": "Degree of destruction/% after 6 days", "setting": "Myzus persicae [3]; [17]", "result": 30, "unit": "%"}, {"measurement": "Degree of destruction/% after 6 days", "setting": "Myzus persicae [3]; [18]", "result": 0, "unit": "%"}, {"measurement": "Degree of destruction/% after 6 days", "setting": "Myzus persicae [3]; [5]", "result": 0, "unit": "%"}, {"measurement": "Degree of destruction/% after 6 days", "setting": "Myzus persicae [3]; [9]", "result": 65, "unit": "%"}, {"measurement": "Degree of destruction/% after 6 days", "setting": "Myzus persicae [3]; [10]", "result": 75, "unit": "%"}, {"measurement": "Degree of destruction/% after 6 days", "setting": "Myzus persicae [3]; [6]", "result": 0, "unit": "%"}]}
{"smiles": "COCC1CCC2(CC1)NC(=O)C(c1c(C)cc(Cl)cc1Cl)=C2O", "note": "(stereo not drawn) [Example I-1-a-16]", "values": [{"measurement": "Degree of destruction/% after 6 days", "setting": "Aphis gossypii [2]; [5]", "result": 75, "unit": "%"}, {"measurement": "Degree of destruction/% after 6 days", "setting": "Aphis gossypii [2]; [6]", "result": 40, "unit": "%"}, {"measurement": "Degree of destruction/% after 6 days", "setting": "Aphis gossypii [2]; [7]", "result": 85, "unit": "%"}, {"measurement": "Degree of destruction/% after 6 days", "setting": "Aphis gossypii [2]; [8]", "result": 75, "unit": "%"}, {"measurement": "Degree of destruction/% after 6 days", "setting": "Aphis gossypii [4]; [7]", "result": 85, "unit": "%"}, {"measurement": "Degree of destruction/% after 6 days", "setting": "Aphis gossypii [4]; 20 ppm active ingredient, +RME (1000 ppm)", "result": 95, "unit": "%"}, {"measurement": "Degree of destruction/% after 6 days", "setting": "Aphis gossypii [4]; 20 ppm active ingredient, +RME +AS (each 1000 ppm)", "result": 99, "unit": "%"}, {"measurement": "Degree of destruction/% after 6 days", "setting": "Aphis gossypii [4]; [8]", "result": 75, "unit": "%"}]}
{"smiles": "Cc1ccc(-c2ccc(Cl)cc2)cc1C1=C(O)C(C)(C)C(C)(C)NC1=O", "note": "[Example I-9-a-1]", "values": [{"measurement": "Degree of destruction/% after 6 days", "setting": "Myzus persicae [3]; [11]", "result": 0, "unit": "%"}, {"measurement": "Degree of destruction/% after 6 days", "setting": "Myzus persicae [3]; [12]", "result": 5, "unit": "%"}, {"measurement": "Degree of destruction/% after 6 days", "setting": "Myzus persicae [3]; [13]", "result": 50, "unit": "%"}, {"measurement": "Degree of destruction/% after 6 days", "setting": "Myzus persicae [3]; [14]", "result": 15, "unit": "%"}]}
{"smiles": "O=C1C(c2cc(-c3ccc(Cl)cc3)ccc2Cl)C(=O)N2CCOCCN12", "note": "[Example I-8-a-2]", "values": [{"measurement": "Degree of destruction/% after 6 days", "setting": "Myzus persicae [3]; [11]", "result": 15, "unit": "%"}, {"measurement": "Degree of destruction/% after 6 days", "setting": "Myzus persicae [3]; [12]", "result": 15, "unit": "%"}, {"measurement": "Degree of destruction/% after 6 days", "setting": "Myzus persicae [3]; [13]", "result": 55, "unit": "%"}, {"measurement": "Degree of destruction/% after 6 days", "setting": "Myzus persicae [3]; [14]", "result": 0, "unit": "%"}]}
{"smiles": "Cc1ccccc1-c1c(O)c(C)c(-c2ccccn2)oc1=O", "note": "[Example I-4-a-2]", "values": [{"measurement": "Degree of destruction/% after 6 days", "setting": "Aphis gossypii [2]; [5]", "result": 60, "unit": "%"}, {"measurement": "Degree of destruction/% after 6 days", "setting": "Aphis gossypii [2]; [6]", "result": 50, "unit": "%"}, {"measurement": "Degree of destruction/% after 6 days", "setting": "Aphis gossypii [4]; [5]", "result": 60, "unit": "%"}, {"measurement": "Degree of destruction/% after 6 days", "setting": "Aphis gossypii [4]; [9]", "result": 0, "unit": "%"}, {"measurement": "Degree of destruction/% after 6 days", "setting": "Aphis gossypii [4]; [10]", "result": 65, "unit": "%"}, {"measurement": "Degree of destruction/% after 6 days", "setting": "Aphis gossypii [4]; [6]", "result": 5, "unit": "%"}]}
{"smiles": "COCC1CCC2(CC1)NC(=O)C(c1cc(C)c(Cl)cc1C)=C2O", "note": "(stereo not drawn) [Example I-1-a-18]", "values": [{"measurement": "Degree of destruction/% after 6 days", "setting": "Myzus persicae [3]; [5]", "result": 0, "unit": "%"}, {"measurement": "Degree of destruction/% after 6 days", "setting": "Myzus persicae [3]; [9]", "result": 35, "unit": "%"}, {"measurement": "Degree of destruction/% after 6 days", "setting": "Myzus persicae [3]; [10]", "result": 55, "unit": "%"}, {"measurement": "Degree of destruction/% after 6 days", "setting": "Myzus persicae [3]; [6]", "result": 0, "unit": "%"}]}
{"smiles": "O=C1C(c2cc(-c3ccc(Cl)cc3)ccc2Cl)C(=O)N2CCCCN12", "note": "[Example I-8-a-1]", "values": [{"measurement": "Degree of destruction/% after 6 days", "setting": "Myzus persicae [3]; [11]", "result": 30, "unit": "%"}, {"measurement": "Degree of destruction/% after 6 days", "setting": "Myzus persicae [3]; [12]", "result": 30, "unit": "%"}, {"measurement": "Degree of destruction/% after 6 days", "setting": "Myzus persicae [3]; [13]", "result": 45, "unit": "%"}, {"measurement": "Degree of destruction/% after 6 days", "setting": "Myzus persicae [3]; [14]", "result": 15, "unit": "%"}, {"measurement": "Degree of destruction/% after 6 days", "setting": "Aphis gossypii [4]; [11]", "result": 15, "unit": "%"}, {"measurement": "Degree of destruction/% after 6 days", "setting": "Aphis gossypii [4]; [12]", "result": 15, "unit": "%"}, {"measurement": "Degree of destruction/% after 6 days", "setting": "Aphis gossypii [4]; [13]", "result": 40, "unit": "%"}, {"measurement": "Degree of destruction/% after 6 days", "setting": "Aphis gossypii [4]; [14]", "result": 0, "unit": "%"}]}
